Assay results published in patent US11377425B1, “Small molecule modulators of IL-17” (LEO Pharma A/S, priority 2018, dated 2022).

These molecules were tested against T1, human IL-17AA (Homo sapiens, UniProt Q16552) (assay: IL-8 release assay in human epithelial keratinocytes adult (HEKa)). Conditions: HEKa cells, 3 ng/mL HEK-human IL-17AA + 10 ng/mL human TNFalpha; read-out: Rel EC50 IL-8 release assay.
T1 construct: host or cells: HEK (human embryonic kidney) cells
T1 sequence (Q16552 24-155): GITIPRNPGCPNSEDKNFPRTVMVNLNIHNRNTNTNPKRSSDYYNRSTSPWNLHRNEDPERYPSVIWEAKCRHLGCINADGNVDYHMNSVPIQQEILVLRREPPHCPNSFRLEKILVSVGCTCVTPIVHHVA
Format: cell-based
Procedure, shortened: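 Adult human epidermal keratinocytes stimulated 68-72 h at 37 °C with 3 ng/mL HEK-derived human IL-17AA plus 10 ng/mL TNF-alpha (final) in the presence of compound; TNF-alpha alone defines 100% inhibition. Secreted IL-8 measured by HTRF as percent of controls; relative IC50/Emax from four-parameter fit (r^2>0.9), cytotoxicity by PrestoBlue.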
In the case of `CC(C)n1nccc1C(=O)N[C@H](C(=O)Nc1ccc(-c2c(C3CC3)ncn2C)cc1)C(C1CC1)C1CC1` [Example 402, N-[(1S)-2,2-dicyclopropyl-1-[[4-(5-cyclopropyl-3-methyl-imidazol-4-yl)phenyl]carbamoyl]ethyl]-2-isopropyl-pyrazole-3-carboxamide], the EC50 is reported as 100 to 1000 nM. With `Cc1ncn(C)c1-c1ccc(NC(=O)[C@@H](NC(=O)c2ccnn2C(C)C)C(C2CC2)C2CC2)cc1` [Example 403, N-[(1S)-1-(dicyclopropylmethyl)-2-[4-(3,5-dimethylimidazol-4-yl)anilino]-2-oxo-ethyl]-2-isopropyl-pyrazole-3-carboxamide] the EC50 was 100 to 1000 nM. `Cc1ncccc1-c1ccc(NC(=O)[C@@H](NC(=O)c2ccnn2C(C)C)C(C2CC2)C2CC2)cc1` [Example 404, N-[(1S)-1-(dicyclopropylmethyl)-2-[4-(2-methyl-3-pyridyl)anilino]-2-oxo-ethyl]-2-isopropyl-pyrazole-3-carboxamide] showed an EC50 of 100 to 1000 nM. `Cc1cnccc1-c1ccc(NC(=O)[C@@H](NC(=O)c2ccnn2C(C)C)C(C2CC2)C2CC2)cc1` [Example 405, N-[(1S)-1-(dicyclopropylmethyl)-2-[4-(3-methyl-4-pyridyl)anilino]-2-oxo-ethyl]-2-isopropyl-pyrazole-3-carboxamide] gave an EC50 of under 100 nM. In the case of `CC(C)n1nccc1C(=O)N[C@H](C(=O)Nc1ccc(-c2c(CO)ncn2C)cc1)C(C1CC1)C1CC1` [Example 406, N-[(1S)-1-(dicyclopropylmethyl)-2-[4-[5-(hydroxymethyl)-3-methyl-imidazol-4-yl]anilino]-2-oxo-ethyl]-2-isopropyl-pyrazole-3-carboxamide], the EC50 is reported as 100 to 1000 nM. In the case of `CC(C)n1nccc1C(=O)N[C@H](C(=O)Nc1ccc(-c2cccnc2CO)cc1)C(C1CC1)C1CC1` [Example 407, N-[(1S)-1-(dicyclopropylmethyl)-2-[4-[2-(hydroxymethyl)-3-pyridyl]anilino]-2-oxo-ethyl]-2-isopropyl-pyrazole-3-carboxamide], the EC50 is reported as 100 to 1000 nM. For `Cc1noc(CO)c1-c1ccc(NC(=O)[C@@H](NC(=O)c2ccnn2C(C)C)C(C2CC2)C2CC2)cc1` [Example 409, N-[(1S)-1-(dicyclopropylmethyl)-2-[4-[5-(hydroxymethyl)-3-methyl-isoxazol-4-yl]anilino]-2-oxo-ethyl]-2-isopropyl-pyrazole-3-carboxamide], the EC50 was 100 to 1000 nM. Work on `Cc1n[nH]c(C)c1-c1ccc(NC(=O)[C@@H](NC(=O)c2ccnn2C(C)C)C(C2CC2)C2CC2)cc1O` [Example 410, N-[(1S)-1-(Dicyclopropylmethyl)-2-[4-(3,5-dimethyl-1H-pyrazol-4-yl)-3-hydroxy-anilino]-2-oxo-ethyl]-2-isopropyl-pyrazole-3-carboxamide] yielded an EC50 of under 100 nM. For `Cc1n[nH]c(C)c1-c1ccc(NC(=O)[C@@H](NC(=O)c2ccnn2C)C(c2ccccc2)c2ccccc2)cc1O` [Example 411, N-[(1S)-1-benzhydryl-2-[4-(3,5-dimethyl-1H-pyrazol-4-yl)-3-hydroxy-anilino]-2-oxo-ethyl]-2-methyl-pyrazole-3-carboxamide], the EC50 was 100 to 1000 nM. `Cc1n[nH]c(C)c1-c1ccc(NC(=O)[C@@H](NC(=O)c2ccnn2C)C2CCCCC2)cc1O` [Example 412, N-[(1S)-1-cyclohexyl-2-[4-(3,5-dimethyl-1H-pyrazol-4-yl)-3-hydroxy-anilino]-2-oxo-ethyl]-2-methyl-pyrazole-3-carboxamide] gave an EC50 of under 100 nM. Molecule `CCn1nccc1C(=O)N[C@H](C(=O)Nc1ccc(-c2c(C)n[nH]c2C)c(O)c1)C(C1CC1)C1CC1` [Example 413, N-[(1S)-1-(dicyclopropylmethyl)-2-[4-(3,5-dimethyl-1H-pyrazol-4-yl)-3-hydroxy-anilino]-2-oxo-ethyl]-2-ethyl-pyrazole-3-carboxamide] has an EC50 of under 100 nM. For `Cc1n[nH]c(C)c1-c1ccc(NC(=O)[C@@H](NC(=O)c2ccnn2C)C(C2CC2)C2CC2)cc1O` [Example 414, N-[(1S)-1-(dicyclopropylmethyl)-2-[4-(3,5-dimethyl-1H-pyrazol-4-yl)-3-hydroxy-anilino]-2-oxo-ethyl]-2-methyl-pyrazole-3-carboxamide], the EC50 was under 100 nM. Work on `Cc1n[nH]c(C)c1-c1ccc(NC(=O)[C@@H](NC(=O)C2(F)CC2)C(C2CC2)C2CC2)cc1O` [Example 415, N-[(1S)-1-(dicyclopropylmethyl)-2-[4-(3,5-dimethyl-1H-pyrazol-4-yl)-3-hydroxy-anilino]-2-oxo-ethyl]-1-fluoro-cyclopropanecarboxamide] yielded an EC50 of 100 to 1000 nM. Work on `CCn1nccc1C(=O)N[C@H](C(=O)Nc1ccc(-c2c(C)n[nH]c2C)c(O)c1)[C@H]1CC[C@H](C)CC1` [Example 416, N-[(1S)-2-[4-(3,5-dimethyl-1H-pyrazol-4-yl)-3-hydroxy-anilino]-1-(trans-4-methylcyclohexyl)-2-oxo-ethyl]-2-ethyl-pyrazole-3-carboxamide] yielded an EC50 of under 100 nM. Molecule `Cc1n[nH]c(C)c1-c1ccc(NC(=O)[C@@H](NC(=O)c2ccnn2C(C)C)[C@H]2CC[C@H](C)CC2)cc1O` [Example 417, N-[(1S)-2-[4-(3,5-dimethyl-1H-pyrazol-4-yl)-3-hydroxy-anilino]-1-(trans-4-methylcyclohexyl)-2-oxo-ethyl]-2-isopropyl-pyrazole-3-carboxamide] has an EC50 of under 100 nM. `CCc1n[nH]c(CC)c1-c1ccc(NC(=O)[C@@H](NC(=O)c2ccnn2C(C)C)C(C2CC2)C2CC2)cc1O` [Example 418, N-[(1S)-1-(dicyclopropylmethyl)-2-[4-(3,5-diethyl-1H-pyrazol-4-yl)-3-hydroxy-anilino]-2-oxo-ethyl]-2-isopropyl-pyrazole-3-carboxamide] showed an EC50 of under 100 nM. In the case of `Cn1cncc1-c1ccc(NC(=O)[C@@H](NC(=O)c2ccnn2C)C2CCCCC2)cc1O` [Example 419, N-[(1S)-1-Cyclohexyl-2-[3-hydroxy-4-(3-methylimidazol-4-yl)anilino]-2-oxo-ethyl]-2-methyl-pyrazole-3-carboxamide], the EC50 is reported as 100 to 1000 nM. Work on `Cn1cncc1-c1ccc(NC(=O)[C@@H](NC(=O)c2ccnn2C)C(c2ccccc2)c2ccccc2)cc1O` [Example 420, N-[(1S)-1-benzhydryl-2-[3-hydroxy-4-(3-methylimidazol-4-yl)anilino]-2-oxo-ethyl]-2-methyl-pyrazole-3-carboxamide] yielded an EC50 of 100 to 1000 nM. With `Cc1n[nH]cc1-c1ccc(NC(=O)[C@@H](NC(=O)c2ccnn2C)C(c2ccccc2)c2ccccc2)cc1O` [Example 421, N-[(1S)-1-Benzhydryl-2-[3-hydroxy-4-(3-methyl-1H-pyrazol-4-yl)anilino]-2-oxo-ethyl]-2-methyl-pyrazole-3-carboxamide] the EC50 was 100 to 1000 nM. In the case of `Cn1cncc1-c1ccc(NC(=O)[C@@H](NC(=O)OC2CC2)C2CCCCC2)cc1O` [Example 422, Cyclopropyl N-[(1S)-1-cyclohexyl-2-[3-hydroxy-4-(3-methylimidazol-4-yl)anilino]-2-oxo-ethyl]carbamate], the EC50 is reported as over 1000 nM. With `Cc1ncn(C)c1-c1ccc(NC(=O)[C@@H](NC(=O)OC2CC2)C(c2ccccc2)c2ccccc2)cc1` [Example 423, Cyclopropyl N-[(1S)-1-benzhydryl-2-[4-(3,5-dimethylimidazol-4-yl)anilino]-2-oxo-ethyl]carbamate] the EC50 was 100 to 1000 nM. `Cc1n[nH]c(C)c1-c1ccc(NC(=O)[C@@H](NC(=O)OC2CC2)C2CCCCC2)cc1O` [Example 424, cyclopropyl N-[(1S)-1-cyclohexyl-2-[4-(3,5-dimethyl-1H-pyrazol-4-yl)-3-hydroxy-anilino]-2-oxo-ethyl]carbamate] was tested, and the EC50 was 100 to 1000 nM. Work on `Cc1n[nH]c(C)c1-c1ccc(NC(=O)[C@@H](NC(=O)OC2CC2)C2CCCCCC2)cc1O` [Example 425, cyclopropyl N-[(1S)-1-cycloheptyl-2-[4-(3,5-dimethyl-1H-pyrazol-4-yl)-3-hydroxy-anilino]-2-oxo-ethyl]carbamate] yielded an EC50 of 100 to 1000 nM. With `Cc1n[nH]c(C)c1-c1ccc(NC(=O)[C@@H](NC(=O)OC2CC2)C(c2ccccc2)c2ccccc2)cc1` [Example 426, cyclopropyl N-[(1S)-1-benzhydryl-2-[4-(3,5-dimethyl-1H-pyrazol-4-yl)anilino]-2-oxo-ethyl]carbamate] the EC50 was 100 to 1000 nM. `Cc1n[nH]c(C)c1-c1ccc(NC(=O)[C@@H](NC(=O)OC2CC2)C2CCCCCC2)cc1` [Example 427, cyclopropyl N-[(1S)-1-cycloheptyl-2-[4-(3,5-dimethyl-1H-pyrazol-4-yl)anilino]-2-oxo-ethyl]carbamate] showed an EC50 of under 100 nM. With `Cc1n[nH]c(C)c1-c1ccc(NC(=O)[C@@H](NC(=O)OC2CCC2)C(C2CC2)C2CC2)cc1` [Example 428, Cyclobutyl N-[(1S)-1-(dicyclopropylmethyl)-2-[4-(3,5-dimethyl-1H-pyrazol-4-yl)anilino]-2-oxo-ethyl]carbamate] the EC50 was under 100 nM. With `Cc1n[nH]c(C)c1-c1ccc(NC(=O)[C@@H](NC(=O)OCc2ccccc2)C2CCCCC2)cc1` [Example 429, benzyl N-[(1S)-1-cyclohexyl-2-[4-(3,5-dimethyl-1H-pyrazol-4-yl)anilino]-2-oxo-ethyl]carbamate] the EC50 was 100 to 1000 nM. For `Cc1n[nH]c(C)c1-c1ccc(NC(=O)[C@@H](NC(=O)OCc2cccnc2)C2CCCCC2)cc1` [Example 430, 3-pyridylmethyl N-[(1S)-1-cyclohexyl-2-[4-(3,5-dimethyl-1H-pyrazol-4-yl)anilino]-2-oxo-ethyl]carbamate], the EC50 was 100 to 1000 nM. `Cc1n[nH]c(C)c1-c1ccc(NC(=O)[C@@H](NC(=O)OCc2ccccn2)C2CCCCC2)cc1` [Example 431, 2-pyridylmethyl N-[(1S)-1-cyclohexyl-2-[4-(3,5-dimethyl-1H-pyrazol-4-yl)anilino]-2-oxo-ethyl]carbamate] gave an EC50 of 100 to 1000 nM.
